Holding throughout (test): Kinase profiling
What all share (type): biochemical

One test addresses T1, CDK1/CycA2 (Homo sapiens, UniProt P06493).
T1 construct: purchased ProQinase (Freiburg, Germany)
The method, then:
(§1) The analysis was performed by ProQinase (Freiburg, Germany).

For another test, the target named is T2, COT (Homo sapiens, UniProt P41279).
T2 construct: purchased ProQinase (Freiburg, Germany)
As for the experimental part:
as §1

The next test deals with T3, EEF2K (Homo sapiens, UniProt O00418).
T3 construct: purchased ProQinase (Freiburg, Germany)
T3 sequence (O00418 1-725): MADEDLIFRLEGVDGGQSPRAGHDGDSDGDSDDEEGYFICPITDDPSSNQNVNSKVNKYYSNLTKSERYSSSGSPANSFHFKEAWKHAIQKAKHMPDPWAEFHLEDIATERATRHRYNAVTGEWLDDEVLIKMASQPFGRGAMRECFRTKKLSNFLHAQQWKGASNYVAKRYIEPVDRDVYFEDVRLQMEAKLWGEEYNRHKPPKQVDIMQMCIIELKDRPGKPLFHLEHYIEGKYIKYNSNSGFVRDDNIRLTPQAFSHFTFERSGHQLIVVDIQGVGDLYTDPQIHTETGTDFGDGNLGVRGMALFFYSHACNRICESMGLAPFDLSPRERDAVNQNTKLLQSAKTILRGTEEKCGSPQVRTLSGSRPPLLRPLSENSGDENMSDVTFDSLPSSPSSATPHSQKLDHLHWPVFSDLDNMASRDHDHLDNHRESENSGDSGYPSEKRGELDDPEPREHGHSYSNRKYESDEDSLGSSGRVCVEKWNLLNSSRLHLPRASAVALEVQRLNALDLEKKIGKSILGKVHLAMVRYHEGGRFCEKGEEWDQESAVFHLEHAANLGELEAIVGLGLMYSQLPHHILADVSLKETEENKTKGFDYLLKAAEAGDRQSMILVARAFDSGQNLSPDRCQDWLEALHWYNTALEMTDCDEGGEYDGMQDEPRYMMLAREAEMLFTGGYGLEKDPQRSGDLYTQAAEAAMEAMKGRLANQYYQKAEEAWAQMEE
The method, then:
as §1

A further test addresses T4, NEK9 (Homo sapiens, UniProt Q8TD19).
T4 construct: purchased ProQinase (Freiburg, Germany)
T4 sequence (Q8TD19 1-979): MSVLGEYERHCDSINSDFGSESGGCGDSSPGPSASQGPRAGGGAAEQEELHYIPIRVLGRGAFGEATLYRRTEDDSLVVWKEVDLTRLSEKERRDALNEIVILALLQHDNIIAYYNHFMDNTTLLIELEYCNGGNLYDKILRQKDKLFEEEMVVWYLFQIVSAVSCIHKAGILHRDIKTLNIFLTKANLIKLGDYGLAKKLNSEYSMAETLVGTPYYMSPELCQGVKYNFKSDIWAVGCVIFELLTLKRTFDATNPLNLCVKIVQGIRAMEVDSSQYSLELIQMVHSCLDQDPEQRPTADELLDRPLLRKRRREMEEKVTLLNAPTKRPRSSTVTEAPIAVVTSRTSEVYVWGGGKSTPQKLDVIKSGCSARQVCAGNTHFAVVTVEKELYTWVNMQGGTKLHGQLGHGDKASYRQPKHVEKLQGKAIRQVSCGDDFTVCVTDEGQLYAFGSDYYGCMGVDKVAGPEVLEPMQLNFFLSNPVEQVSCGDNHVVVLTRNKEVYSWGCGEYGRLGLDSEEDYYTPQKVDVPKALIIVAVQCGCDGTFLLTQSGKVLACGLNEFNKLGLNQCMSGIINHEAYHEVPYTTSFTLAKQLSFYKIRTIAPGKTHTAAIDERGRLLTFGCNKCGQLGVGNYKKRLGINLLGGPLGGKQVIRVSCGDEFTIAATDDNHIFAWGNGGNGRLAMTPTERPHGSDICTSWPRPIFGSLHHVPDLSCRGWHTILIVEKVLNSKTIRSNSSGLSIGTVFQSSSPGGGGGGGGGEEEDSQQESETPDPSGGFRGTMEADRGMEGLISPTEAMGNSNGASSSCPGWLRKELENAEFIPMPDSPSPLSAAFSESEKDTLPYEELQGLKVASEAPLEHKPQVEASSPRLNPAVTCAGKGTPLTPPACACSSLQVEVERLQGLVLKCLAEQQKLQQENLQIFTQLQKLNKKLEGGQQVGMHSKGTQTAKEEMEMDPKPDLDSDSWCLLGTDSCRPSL
As for the experimental part: as §1

Another test has as its target T5, ULK2 (Homo sapiens, UniProt Q8IYT8).
T5 construct: purchased ProQinase (Freiburg, Germany)
T5 sequence (Q8IYT8 1-1036): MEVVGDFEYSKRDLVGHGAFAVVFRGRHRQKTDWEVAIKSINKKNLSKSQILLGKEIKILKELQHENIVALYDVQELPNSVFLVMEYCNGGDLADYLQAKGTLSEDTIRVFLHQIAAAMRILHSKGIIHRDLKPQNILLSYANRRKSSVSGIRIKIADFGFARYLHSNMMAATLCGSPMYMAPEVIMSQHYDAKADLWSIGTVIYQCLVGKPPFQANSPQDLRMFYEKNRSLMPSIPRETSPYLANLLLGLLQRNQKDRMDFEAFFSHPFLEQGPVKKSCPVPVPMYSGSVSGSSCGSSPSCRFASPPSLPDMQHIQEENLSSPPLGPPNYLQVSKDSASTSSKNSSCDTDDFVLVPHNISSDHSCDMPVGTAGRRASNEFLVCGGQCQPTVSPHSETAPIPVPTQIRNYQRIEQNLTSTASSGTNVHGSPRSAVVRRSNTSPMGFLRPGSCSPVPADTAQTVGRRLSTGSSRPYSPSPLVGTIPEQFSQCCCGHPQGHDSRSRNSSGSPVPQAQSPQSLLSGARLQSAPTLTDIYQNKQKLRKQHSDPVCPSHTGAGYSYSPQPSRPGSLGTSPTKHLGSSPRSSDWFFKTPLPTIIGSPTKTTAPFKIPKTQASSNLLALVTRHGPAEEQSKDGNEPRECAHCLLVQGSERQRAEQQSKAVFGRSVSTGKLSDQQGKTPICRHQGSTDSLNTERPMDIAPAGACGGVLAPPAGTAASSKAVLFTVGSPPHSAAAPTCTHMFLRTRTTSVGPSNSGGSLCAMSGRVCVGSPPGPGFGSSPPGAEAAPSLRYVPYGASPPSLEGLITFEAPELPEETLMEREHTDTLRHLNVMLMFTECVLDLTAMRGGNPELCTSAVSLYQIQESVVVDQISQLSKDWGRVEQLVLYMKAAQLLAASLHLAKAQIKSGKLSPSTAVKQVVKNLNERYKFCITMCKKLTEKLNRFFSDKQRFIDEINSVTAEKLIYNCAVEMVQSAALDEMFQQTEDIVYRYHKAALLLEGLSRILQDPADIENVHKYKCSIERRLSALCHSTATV
The method, then: as §1

The target in the next test is T6, VEGFR1 (Homo sapiens, UniProt P17948).
T6 construct: purchased ProQinase (Freiburg, Germany)
T6 sequence (P17948 27-1338): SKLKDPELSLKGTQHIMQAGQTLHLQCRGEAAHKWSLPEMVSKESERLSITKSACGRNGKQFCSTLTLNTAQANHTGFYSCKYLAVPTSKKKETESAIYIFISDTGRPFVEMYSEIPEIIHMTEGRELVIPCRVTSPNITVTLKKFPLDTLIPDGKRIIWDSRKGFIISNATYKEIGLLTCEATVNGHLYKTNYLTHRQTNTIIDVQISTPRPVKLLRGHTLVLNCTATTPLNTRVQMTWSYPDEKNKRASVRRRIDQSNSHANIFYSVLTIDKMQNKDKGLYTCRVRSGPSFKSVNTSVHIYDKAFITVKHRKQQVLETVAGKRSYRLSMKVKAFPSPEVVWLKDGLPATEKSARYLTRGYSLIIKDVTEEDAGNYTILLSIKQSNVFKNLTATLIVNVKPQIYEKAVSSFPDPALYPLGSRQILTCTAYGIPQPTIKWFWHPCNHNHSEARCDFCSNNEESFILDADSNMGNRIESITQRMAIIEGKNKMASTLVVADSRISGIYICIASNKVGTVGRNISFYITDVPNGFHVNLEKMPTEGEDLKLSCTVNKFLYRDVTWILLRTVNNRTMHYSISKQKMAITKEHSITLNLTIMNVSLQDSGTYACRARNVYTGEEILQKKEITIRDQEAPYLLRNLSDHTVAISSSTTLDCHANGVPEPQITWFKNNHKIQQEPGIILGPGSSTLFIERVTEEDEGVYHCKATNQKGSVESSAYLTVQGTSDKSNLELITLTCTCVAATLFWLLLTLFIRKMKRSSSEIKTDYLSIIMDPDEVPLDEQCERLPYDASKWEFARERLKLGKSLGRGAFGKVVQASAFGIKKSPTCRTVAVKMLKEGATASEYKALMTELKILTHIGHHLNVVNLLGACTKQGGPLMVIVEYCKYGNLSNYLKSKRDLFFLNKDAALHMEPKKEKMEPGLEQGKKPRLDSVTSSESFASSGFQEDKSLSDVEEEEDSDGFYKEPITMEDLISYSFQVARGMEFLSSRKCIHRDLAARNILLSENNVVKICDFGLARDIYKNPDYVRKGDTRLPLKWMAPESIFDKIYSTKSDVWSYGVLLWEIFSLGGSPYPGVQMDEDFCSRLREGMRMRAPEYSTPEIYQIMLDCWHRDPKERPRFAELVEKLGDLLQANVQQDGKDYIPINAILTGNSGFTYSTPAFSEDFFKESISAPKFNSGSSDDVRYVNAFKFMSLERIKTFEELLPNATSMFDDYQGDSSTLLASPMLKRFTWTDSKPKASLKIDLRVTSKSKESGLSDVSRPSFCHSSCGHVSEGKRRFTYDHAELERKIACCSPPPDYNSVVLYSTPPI
As for the experimental part:
as §1

T1 sequence (P06493 whole entry): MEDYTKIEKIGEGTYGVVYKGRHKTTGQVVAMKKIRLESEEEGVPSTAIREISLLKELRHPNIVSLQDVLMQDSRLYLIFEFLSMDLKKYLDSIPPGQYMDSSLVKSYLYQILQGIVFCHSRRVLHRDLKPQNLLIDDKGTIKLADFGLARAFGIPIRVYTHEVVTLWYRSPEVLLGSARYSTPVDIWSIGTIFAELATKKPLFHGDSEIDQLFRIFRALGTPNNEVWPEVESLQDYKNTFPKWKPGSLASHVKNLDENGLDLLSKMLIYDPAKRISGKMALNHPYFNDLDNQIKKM
T1 sequence (P20248 whole entry partner): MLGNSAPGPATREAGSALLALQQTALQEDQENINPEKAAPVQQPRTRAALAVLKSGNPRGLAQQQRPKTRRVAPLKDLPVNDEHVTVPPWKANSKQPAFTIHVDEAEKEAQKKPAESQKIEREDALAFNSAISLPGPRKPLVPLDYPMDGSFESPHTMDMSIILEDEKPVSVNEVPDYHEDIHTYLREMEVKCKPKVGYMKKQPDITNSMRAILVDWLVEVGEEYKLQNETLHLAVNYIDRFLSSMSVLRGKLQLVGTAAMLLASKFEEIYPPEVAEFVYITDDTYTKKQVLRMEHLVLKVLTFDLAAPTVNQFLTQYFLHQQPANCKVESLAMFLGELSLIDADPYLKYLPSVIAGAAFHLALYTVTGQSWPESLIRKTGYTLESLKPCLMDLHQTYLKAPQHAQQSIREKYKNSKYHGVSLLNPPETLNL
T2 sequence (P41279 whole entry): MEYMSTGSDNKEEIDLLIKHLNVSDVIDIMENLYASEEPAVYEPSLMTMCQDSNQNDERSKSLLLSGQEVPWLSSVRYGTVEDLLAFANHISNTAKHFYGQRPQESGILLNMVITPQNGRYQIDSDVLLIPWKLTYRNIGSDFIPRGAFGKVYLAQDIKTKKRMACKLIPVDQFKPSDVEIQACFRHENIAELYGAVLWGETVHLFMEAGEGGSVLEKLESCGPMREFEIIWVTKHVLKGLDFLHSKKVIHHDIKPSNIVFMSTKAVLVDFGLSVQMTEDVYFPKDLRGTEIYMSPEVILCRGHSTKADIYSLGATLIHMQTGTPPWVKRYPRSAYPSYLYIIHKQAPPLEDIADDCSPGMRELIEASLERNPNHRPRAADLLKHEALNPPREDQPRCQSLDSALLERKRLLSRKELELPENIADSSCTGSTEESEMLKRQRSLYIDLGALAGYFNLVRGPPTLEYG

On to `O=C(Nc1ccc(F)c(Nc2ccc3c(c2)CCCCC3=O)c1)c1cccc(F)c1` [Compound 109], for which the Residual activity on CDK1/CycA2 (1.0E-05 M) was 88 % of control; on CDK1/CycA2 (1.0E-06 M), 86 % of control; on COT (1.0E-05 M), 97 % of control; at COT (1.0E-06 M), 95 % of control; at EEF2K (1.0E-05 M), 94 % of control; on EEF2K (1.0E-06 M), 95 % of control. In addition, the Residual activity is recorded as 81 % of control at NEK9 (1.0E-05 M); 96 % of control on NEK9 (1.0E-06 M); 113 % of control on ULK2 (1.0E-05 M); 99 % of control on ULK2 (1.0E-06 M); 93 % of control at VEGFR1 (1.0E-05 M); 101 % of control on VEGFR1 (1.0E-06 M).

As to `O=C(Cc1ccccc1)Nc1ccc(F)c(Nc2ccc3c(c2)CCCCC3=O)c1` [Compound 100], the Residual activity at CDK1/CycA2 (1.0E-05 M) is listed as 83 % of control; at CDK1/CycA2 (1.0E-06 M), 85 % of control; at COT (1.0E-05 M), 106 % of control; on COT (1.0E-06 M) it was 93 % of control; at EEF2K (1.0E-05 M), 89 % of control; on EEF2K (1.0E-06 M), 102 % of control. Also, the Residual activity on NEK9 (1.0E-05 M) is 93 % of control; at NEK9 (1.0E-06 M), 86 % of control; at ULK2 (1.0E-05 M), 103 % of control; at ULK2 (1.0E-06 M), 113 % of control; at VEGFR1 (1.0E-05 M) it was 93 % of control; on VEGFR1 (1.0E-06 M), 100 % of control.

(Values after paper PMC9030254, “Target Hopping from Protein Kinases to PXR: Identification of Small-Molecule Protein Kinase Inhibitors as Selective Modulators of Pregnane X Receptor from TüKIC Library” (Cells, 2022).)
